Measured values reported in PubChem BioAssay AID1919016 (Molecular Pharmacology Branch, DTP, NCI, 2023).

Test system: NCI-H196 complex spheroid growth, percent test/control
Assay: Anticancer human tumor NCI-H196 cell line growth inhibition [AhR];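 note: seven days of drug exposure starting three days after plating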;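 for viability, T/C: 100% = DMSO vehicle control wells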
Settings: for IC50: curve of first compound; for viability, T/C: stronger effect = lower value
Summary of the method: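 Spheroids combined tumor cells with HUVEC endothelial cells and human MSCs as stroma. AhR antagonists were paired with standard or investigational drugs, each dosed in half-log steps down from near clinical Cmax, or from 10 microM where Cmax was unknown.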

[1] = second compound 0.1 µM, first compound 0.000949 µM
[2] = second compound 0.1 µM, first compound 0.003 µM
[3] = second compound 0.1 µM, first compound 0.00949 µM
[4] = second compound 0.1 µM, first compound 0.03 µM
[5] = second compound 0.1 µM, first compound 0.0949 µM
[6] = second compound 0.1 µM, first compound 0.3 µM
[7] = second compound 0.316 µM, first compound 0.000949 µM
[8] = second compound 0.316 µM, first compound 0.003 µM
[9] = second compound 0.316 µM, first compound 0.00949 µM
[10] = second compound 0.316 µM, first compound 0.03 µM
[11] = second compound 0.316 µM, first compound 0.0949 µM
[12] = second compound 0.316 µM, first compound 0.3 µM
[13] = second compound 1 µM, first compound 0.000949 µM
[14] = second compound 1 µM, first compound 0.003 µM
[15] = second compound 1 µM, first compound 0.00949 µM
[16] = second compound 1 µM, first compound 0.03 µM
[17] = second compound 1 µM, first compound 0.0949 µM
[18] = second compound 1 µM, first compound 0.3 µM
[19] = second compound 3.16 µM, first compound 0.000949 µM
[20] = second compound 3.16 µM, first compound 0.003 µM
[21] = second compound 3.16 µM, first compound 0.00949 µM
[22] = second compound 3.16 µM, first compound 0.03 µM
[23] = second compound 3.16 µM, first compound 0.0949 µM
[24] = second compound 3.16 µM, first compound 0.3 µM
[25] = second compound 10 µM, first compound 0.000949 µM
[26] = second compound 10 µM, first compound 0.003 µM
[27] = second compound 10 µM, first compound 0.00949 µM
[28] = second compound 10 µM, first compound 0.03 µM
[29] = second compound 10 µM, first compound 0.0949 µM
[30] = second compound 10 µM, first compound 0.3 µM
[31] = second compound 0.1 µM, first compound 0.0316 µM
[32] = second compound 0.1 µM, first compound 0.1 µM
[33] = second compound 0.1 µM, first compound 0.316 µM
[34] = second compound 0.1 µM, first compound 1 µM
[35] = second compound 0.1 µM, first compound 3.16 µM
[36] = second compound 0.1 µM, first compound 10 µM
[37] = second compound 0.316 µM, first compound 0.0316 µM
[38] = second compound 0.316 µM, first compound 0.1 µM
[39] = second compound 0.316 µM, first compound 0.316 µM
[40] = second compound 0.316 µM, first compound 1 µM
[41] = second compound 0.316 µM, first compound 3.16 µM
[42] = second compound 0.316 µM, first compound 10 µM
[43] = second compound 1 µM, first compound 0.0316 µM
[44] = second compound 1 µM, first compound 0.1 µM
[45] = second compound 1 µM, first compound 0.316 µM
[46] = second compound 1 µM, first compound 1 µM
[47] = second compound 1 µM, first compound 3.16 µM
[48] = second compound 1 µM, first compound 10 µM
[49] = second compound 3.16 µM, first compound 0.0316 µM
[50] = second compound 3.16 µM, first compound 0.1 µM
[51] = second compound 3.16 µM, first compound 0.316 µM
[52] = second compound 3.16 µM, first compound 1 µM
[53] = second compound 3.16 µM, first compound 3.16 µM
[54] = second compound 3.16 µM, first compound 10 µM
[55] = second compound 10 µM, first compound 0.0316 µM
[56] = second compound 10 µM, first compound 0.1 µM
[57] = second compound 10 µM, first compound 0.316 µM
[58] = second compound 10 µM, first compound 1 µM
[59] = second compound 10 µM, first compound 3.16 µM
[60] = second compound 10 µM, first compound 10 µM

SMILES: CC(C)CC(NC(=O)C(Cc1ccccc1)NC(=O)c1cnccn1)B(O)O (stereo not given) + Cc1cncc(-c2nc(NCCc3c[nH]c4ccccc34)c3ncn(C(C)C)c3n2)c1
- IC50 (second compound 0.1 µM): 0.00765 µM
- IC50 (second compound 0.316 µM): 0.00851 µM
- IC50 (second compound 1 µM): 0.00735 µM
- IC50 (second compound 3.16 µM): 0.0099 µM
- IC50 (second compound 10 µM): 0.00554 µM
- viability, T/C [1]: 98.2%
- viability, T/C [2]: 109%
- viability, T/C [3]: 37.6%
- viability, T/C [4]: 1.78%
- viability, T/C [5]: 1.16%
- viability, T/C [6]: 1.38%
- viability, T/C [7]: 95.2%
- viability, T/C [8]: 99.1%
- viability, T/C [9]: 45%
- viability, T/C [10]: 1.25%
- viability, T/C [11]: 2.43%
- viability, T/C [12]: 1.51%
- viability, T/C [13]: 102%
- viability, T/C [14]: 98.7%
- viability, T/C [15]: 36.1%
- viability, T/C [16]: 1.32%
- viability, T/C [17]: 1.62%
- viability, T/C [18]: 0.94%
- viability, T/C [19]: 105%
- viability, T/C [20]: 103%
- viability, T/C [21]: 51.9%
- viability, T/C [22]: 0.84%
- viability, T/C [23]: 0.89%
- viability, T/C [24]: 2.1%
- viability, T/C [25]: 83.2%
- viability, T/C [26]: 95%
- viability, T/C [27]: 15.8%
- viability, T/C [28]: 0.72%
- viability, T/C [29]: 0.96%
- viability, T/C [30]: 1.09%

SMILES: CCc1c2c(nc3ccc(O)cc13)-c1cc3c(c(=O)n1C2)COC(=O)[C@]3(O)CC + Cc1cncc(-c2nc(NCCc3c[nH]c4ccccc34)c3ncn(C(C)C)c3n2)c1
- IC50 (second compound 0.1 µM): > 0.3 µM
- IC50 (second compound 0.316 µM): > 0.3 µM
- IC50 (second compound 1 µM): > 0.3 µM
- IC50 (second compound 3.16 µM): > 0.3 µM
- IC50 (second compound 10 µM): 0.104 µM
- viability, T/C [1]: 99.9%
- viability, T/C [2]: 102%
- viability, T/C [3]: 104%
- viability, T/C [4]: 102%
- viability, T/C [5]: 87.6%
- viability, T/C [6]: 78.5%
- viability, T/C [7]: 91.3%
- viability, T/C [8]: 91.9%
- viability, T/C [9]: 96%
- viability, T/C [10]: 100%
- viability, T/C [11]: 77.2%
- viability, T/C [12]: 74.2%
- viability, T/C [13]: 99.3%
- viability, T/C [14]: 109%
- viability, T/C [15]: 116%
- viability, T/C [16]: 102%
- viability, T/C [17]: 96.9%
- viability, T/C [18]: 57.8%
- viability, T/C [19]: 96.9%
- viability, T/C [20]: 102%
- viability, T/C [21]: 92.4%
- viability, T/C [22]: 85.6%
- viability, T/C [23]: 86.7%
- viability, T/C [24]: 52.5%
- viability, T/C [25]: 82.9%
- viability, T/C [26]: 88.5%
- viability, T/C [27]: 90%
- viability, T/C [28]: 65.5%
- viability, T/C [29]: 54.6%
- viability, T/C [30]: 30.5%

SMILES: Nc1ccccc1NC(=O)c1ccc(CNC(=O)OCc2cccnc2)cc1 + Cc1cncc(-c2nc(NCCc3c[nH]c4ccccc34)c3ncn(C(C)C)c3n2)c1
- IC50 (second compound 0.1 µM): 0.478 µM
- IC50 (second compound 0.316 µM): 0.614 µM
- IC50 (second compound 1 µM): 0.54 µM
- IC50 (second compound 3.16 µM): 0.651 µM
- IC50 (second compound 10 µM): 0.591 µM
- viability, T/C [31]: 87.4%
- viability, T/C [32]: 74.2%
- viability, T/C [33]: 57.6%
- viability, T/C [34]: 38.3%
- viability, T/C [35]: 12.1%
- viability, T/C [36]: 0.58%
- viability, T/C [37]: 75.1%
- viability, T/C [38]: 78.7%
- viability, T/C [39]: 60%
- viability, T/C [40]: 42%
- viability, T/C [41]: 13%
- viability, T/C [42]: 0.65%
- viability, T/C [43]: 96.3%
- viability, T/C [44]: 81.4%
- viability, T/C [45]: 67.4%
- viability, T/C [46]: 31.9%
- viability, T/C [47]: 11.4%
- viability, T/C [48]: 0.72%
- viability, T/C [49]: 87.1%
- viability, T/C [50]: 85.2%
- viability, T/C [51]: 69.8%
- viability, T/C [52]: 38.3%
- viability, T/C [53]: 9.78%
- viability, T/C [54]: 1.22%
- viability, T/C [55]: 82.2%
- viability, T/C [56]: 85.5%
- viability, T/C [57]: 63.5%
- viability, T/C [58]: 38.1%
- viability, T/C [59]: 8.35%
- viability, T/C [60]: 1.86%

SMILES: O=C(c1cc(Cc2n[nH]c(=O)c3ccccc23)ccc1F)N1CCN(C(=O)C2CC2)CC1 + Cc1cncc(-c2nc(NCCc3c[nH]c4ccccc34)c3ncn(C(C)C)c3n2)c1
- IC50 (second compound 0.1 µM): > 10 µM
- IC50 (second compound 0.316 µM): > 10 µM
- IC50 (second compound 1 µM): > 10 µM
- IC50 (second compound 3.16 µM): > 10 µM
- IC50 (second compound 10 µM): > 10 µM
- viability, T/C [31]: 103%
- viability, T/C [32]: 102%
- viability, T/C [33]: 96.1%
- viability, T/C [34]: 96%
- viability, T/C [35]: 98.8%
- viability, T/C [36]: 87.4%
- viability, T/C [37]: 101%
- viability, T/C [38]: 101%
- viability, T/C [39]: 103%
- viability, T/C [40]: 94%
- viability, T/C [41]: 107%
- viability, T/C [42]: 91.2%
- viability, T/C [43]: 105%
- viability, T/C [44]: 90.5%
- viability, T/C [45]: 105%
- viability, T/C [46]: 93.4%
- viability, T/C [47]: 101%
- viability, T/C [48]: 97.7%
- viability, T/C [49]: 113%
- viability, T/C [50]: 106%
- viability, T/C [51]: 98.1%
- viability, T/C [52]: 99.7%
- viability, T/C [53]: 103%
- viability, T/C [54]: 99.6%
- viability, T/C [55]: 81.9%
- viability, T/C [56]: 91.7%
- viability, T/C [57]: 87.4%
- viability, T/C [58]: 88.7%
- viability, T/C [59]: 86.9%
- viability, T/C [60]: 93.8%
